Results from patent US20230167114A1, “MACROCYCLIC JAK INHIBITOR AND USE THEREOF” (Biopolar Hongye (Guangdong) Pharmaceutical Co., Ltd., priority 2020, published 2023).

Legend:
Format in all cases: biochemical
JAK2 = JAK2 (Homo sapiens, UniProt O60674); assay: JAK kinase activity, homogeneous time-resolved fluorescence (JAK2 reaction system); details: ATP 2 μM, JAK2 protein 0.01 ng/μL
Experimental: (§1) The activity measurement method of JAK kinase was to use homogeneous time-resolved fluorescence technique. The reaction was performed in 384 shallow well plates with a total reaction volume of 10 μL. The mixture of kinase protein, compound, ATP and substrate was carried out in a reaction buffer of 50 mM Hepes (pH7.0), NaN3 0.02%, BSA 0.01%, 0.1 mM orthocanadate, 5 mM MgCl2, and 1 mM DTT. After reacting for 1 hour, antibody capable of recognizing substrate phosphorylation and dye XL-615 and detection buffer (Cisbio) containing EDTA were added to the system. The reaction signal of kinase was detected by PE company's porous plate detector. The parameter settings were excitation light at 320 nm, emission light at 615 nm and 665 nm. The activity of JAK is indirectly reflected by the signal ratio of 665 nm and 615 nm. In the reaction, the background well without enzyme and the total enzyme activity well without compound were set.
(§2) The IC50 value of the compound inhibiting protein was obtained by the formula: Y=100/(1+10^((Log IC50−X)*HillSlope)).
In JAK2 reaction system, the concentration of ATP was 2 μM, and the concentration of JAK2 protein was 0.01 ng/μL.

TYK2 = TYK2 (Homo sapiens, UniProt P29597); assay: JAK kinase activity, homogeneous time-resolved fluorescence (TYK2 reaction system); details: ATP 2 μM, TYK2 protein 0.2 ng/μL; read-out: TYK 2 activity
Sequence of TYK2 (P29597 whole entry): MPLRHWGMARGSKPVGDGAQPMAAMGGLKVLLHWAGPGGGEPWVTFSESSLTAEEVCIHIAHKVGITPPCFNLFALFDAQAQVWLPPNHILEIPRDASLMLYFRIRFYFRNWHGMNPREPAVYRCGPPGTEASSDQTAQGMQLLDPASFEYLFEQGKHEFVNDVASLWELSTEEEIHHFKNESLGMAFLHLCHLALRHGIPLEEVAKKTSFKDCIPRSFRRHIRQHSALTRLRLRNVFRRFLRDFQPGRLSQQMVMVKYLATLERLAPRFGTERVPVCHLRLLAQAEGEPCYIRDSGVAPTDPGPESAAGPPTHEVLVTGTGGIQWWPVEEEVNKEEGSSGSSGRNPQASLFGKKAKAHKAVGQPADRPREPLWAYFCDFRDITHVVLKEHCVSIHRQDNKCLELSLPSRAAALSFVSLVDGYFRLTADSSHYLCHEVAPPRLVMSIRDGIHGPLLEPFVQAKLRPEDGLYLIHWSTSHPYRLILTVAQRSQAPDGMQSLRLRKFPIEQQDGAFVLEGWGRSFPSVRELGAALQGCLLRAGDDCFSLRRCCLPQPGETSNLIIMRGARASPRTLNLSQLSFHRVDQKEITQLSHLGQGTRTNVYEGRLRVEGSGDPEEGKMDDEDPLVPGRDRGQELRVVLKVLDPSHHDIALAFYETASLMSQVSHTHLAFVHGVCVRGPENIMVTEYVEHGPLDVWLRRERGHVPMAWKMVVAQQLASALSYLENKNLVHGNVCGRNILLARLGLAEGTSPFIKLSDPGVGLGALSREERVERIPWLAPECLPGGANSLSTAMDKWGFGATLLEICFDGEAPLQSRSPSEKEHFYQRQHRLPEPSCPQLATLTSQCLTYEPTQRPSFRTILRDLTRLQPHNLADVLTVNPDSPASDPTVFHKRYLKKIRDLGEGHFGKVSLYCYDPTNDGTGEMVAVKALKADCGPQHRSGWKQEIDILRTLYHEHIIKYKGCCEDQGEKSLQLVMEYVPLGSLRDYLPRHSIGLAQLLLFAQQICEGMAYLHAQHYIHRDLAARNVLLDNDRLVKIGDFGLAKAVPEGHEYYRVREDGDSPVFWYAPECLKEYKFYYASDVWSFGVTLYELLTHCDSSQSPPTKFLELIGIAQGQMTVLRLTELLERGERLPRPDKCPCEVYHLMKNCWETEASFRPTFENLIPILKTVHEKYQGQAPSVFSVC
Experimental: as §1, §2
In TYK2 reaction system, the concentration of ATP was 2 μM and the concentration of TYK2 protein was 0.2 ng/μL.

JAK3 = biological target: T1, JAK3 (Homo sapiens, UniProt P52333); assay: JAK kinase activity, homogeneous time-resolved fluorescence (JAK3 reaction system); details: ATP 2 μM, JAK3 protein 0.04 ng/μL; read-out: JAK 3 activity
T1 sequence (P52333 1-1124): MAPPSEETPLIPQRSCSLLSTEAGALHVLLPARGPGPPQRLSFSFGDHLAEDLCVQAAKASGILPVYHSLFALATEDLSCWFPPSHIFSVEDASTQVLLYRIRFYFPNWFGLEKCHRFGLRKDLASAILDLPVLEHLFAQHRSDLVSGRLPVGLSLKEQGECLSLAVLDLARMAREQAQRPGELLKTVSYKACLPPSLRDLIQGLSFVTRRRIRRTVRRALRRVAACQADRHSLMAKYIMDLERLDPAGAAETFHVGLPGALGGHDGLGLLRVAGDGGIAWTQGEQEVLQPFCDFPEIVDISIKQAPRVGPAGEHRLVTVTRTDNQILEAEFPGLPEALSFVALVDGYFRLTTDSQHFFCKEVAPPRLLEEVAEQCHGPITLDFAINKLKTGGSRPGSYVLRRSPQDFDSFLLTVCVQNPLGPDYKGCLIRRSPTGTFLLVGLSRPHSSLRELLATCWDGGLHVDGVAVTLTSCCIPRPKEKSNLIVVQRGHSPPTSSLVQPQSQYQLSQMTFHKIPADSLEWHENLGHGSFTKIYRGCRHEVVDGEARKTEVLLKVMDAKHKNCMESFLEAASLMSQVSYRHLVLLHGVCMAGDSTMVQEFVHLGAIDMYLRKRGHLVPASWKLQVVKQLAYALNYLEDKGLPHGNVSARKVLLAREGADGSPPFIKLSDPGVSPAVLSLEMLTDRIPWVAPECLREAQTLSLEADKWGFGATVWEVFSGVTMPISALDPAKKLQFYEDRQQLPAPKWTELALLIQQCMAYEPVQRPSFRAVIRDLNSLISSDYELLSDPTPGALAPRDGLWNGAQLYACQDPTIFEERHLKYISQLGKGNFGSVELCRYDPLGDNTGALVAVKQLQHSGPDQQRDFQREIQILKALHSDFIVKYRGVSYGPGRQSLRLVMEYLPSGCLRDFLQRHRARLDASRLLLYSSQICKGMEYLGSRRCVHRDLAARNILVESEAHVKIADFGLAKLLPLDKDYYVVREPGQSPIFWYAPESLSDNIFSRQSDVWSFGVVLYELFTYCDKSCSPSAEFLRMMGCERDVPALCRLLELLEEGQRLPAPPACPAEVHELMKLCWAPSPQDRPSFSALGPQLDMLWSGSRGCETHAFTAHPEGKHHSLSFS
Experimental: as §1, §2
In JAK3 reaction system, the concentration of ATP was 2 μM, and the concentration of JAK3 protein was 0.04 ng/μL.

JAK1 = JAK1 (Homo sapiens, UniProt P23458); assay: JAK kinase activity, homogeneous time-resolved fluorescence (JAK1 reaction system); details: ATP 2 μM, JAK1 protein 0.2 ng/μL; read-out: JAK 1 activity
Sequence of JAK1 (P23458 whole entry): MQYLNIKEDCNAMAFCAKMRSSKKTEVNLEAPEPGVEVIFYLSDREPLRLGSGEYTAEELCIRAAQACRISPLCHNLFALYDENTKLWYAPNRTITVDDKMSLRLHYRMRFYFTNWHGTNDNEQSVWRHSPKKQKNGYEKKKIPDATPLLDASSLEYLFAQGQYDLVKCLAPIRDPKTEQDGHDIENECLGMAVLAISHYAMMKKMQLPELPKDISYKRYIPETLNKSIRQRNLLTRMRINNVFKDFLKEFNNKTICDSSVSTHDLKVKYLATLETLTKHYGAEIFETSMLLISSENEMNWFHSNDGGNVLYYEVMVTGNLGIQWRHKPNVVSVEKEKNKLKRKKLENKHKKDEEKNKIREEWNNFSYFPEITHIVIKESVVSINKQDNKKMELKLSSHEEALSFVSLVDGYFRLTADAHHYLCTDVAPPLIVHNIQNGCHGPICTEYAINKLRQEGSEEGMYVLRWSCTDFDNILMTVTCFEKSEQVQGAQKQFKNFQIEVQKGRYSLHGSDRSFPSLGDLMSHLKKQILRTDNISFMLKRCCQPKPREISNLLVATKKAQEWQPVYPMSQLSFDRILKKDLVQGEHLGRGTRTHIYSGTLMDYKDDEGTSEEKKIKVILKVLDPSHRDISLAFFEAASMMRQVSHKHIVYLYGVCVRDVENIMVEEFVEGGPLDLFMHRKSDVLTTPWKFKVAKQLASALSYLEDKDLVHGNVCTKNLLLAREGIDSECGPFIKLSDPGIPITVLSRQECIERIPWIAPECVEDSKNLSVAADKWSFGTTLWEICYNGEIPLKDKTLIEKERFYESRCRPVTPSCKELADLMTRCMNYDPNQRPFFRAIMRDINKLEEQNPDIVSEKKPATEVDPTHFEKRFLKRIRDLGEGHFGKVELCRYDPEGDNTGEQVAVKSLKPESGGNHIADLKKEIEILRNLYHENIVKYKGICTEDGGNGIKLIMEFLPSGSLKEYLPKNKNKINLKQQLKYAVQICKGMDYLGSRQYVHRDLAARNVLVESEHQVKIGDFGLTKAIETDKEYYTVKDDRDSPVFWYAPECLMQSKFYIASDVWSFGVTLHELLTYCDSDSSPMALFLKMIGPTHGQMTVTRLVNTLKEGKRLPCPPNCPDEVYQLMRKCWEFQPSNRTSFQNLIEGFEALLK
Experimental: as §1, §2
In JAK1 reaction system, the concentration of ATP was 2 μM, and the concentration of JAK1 protein was 0.2 ng/μL.

Sequence of JAK2 (O60674 whole entry): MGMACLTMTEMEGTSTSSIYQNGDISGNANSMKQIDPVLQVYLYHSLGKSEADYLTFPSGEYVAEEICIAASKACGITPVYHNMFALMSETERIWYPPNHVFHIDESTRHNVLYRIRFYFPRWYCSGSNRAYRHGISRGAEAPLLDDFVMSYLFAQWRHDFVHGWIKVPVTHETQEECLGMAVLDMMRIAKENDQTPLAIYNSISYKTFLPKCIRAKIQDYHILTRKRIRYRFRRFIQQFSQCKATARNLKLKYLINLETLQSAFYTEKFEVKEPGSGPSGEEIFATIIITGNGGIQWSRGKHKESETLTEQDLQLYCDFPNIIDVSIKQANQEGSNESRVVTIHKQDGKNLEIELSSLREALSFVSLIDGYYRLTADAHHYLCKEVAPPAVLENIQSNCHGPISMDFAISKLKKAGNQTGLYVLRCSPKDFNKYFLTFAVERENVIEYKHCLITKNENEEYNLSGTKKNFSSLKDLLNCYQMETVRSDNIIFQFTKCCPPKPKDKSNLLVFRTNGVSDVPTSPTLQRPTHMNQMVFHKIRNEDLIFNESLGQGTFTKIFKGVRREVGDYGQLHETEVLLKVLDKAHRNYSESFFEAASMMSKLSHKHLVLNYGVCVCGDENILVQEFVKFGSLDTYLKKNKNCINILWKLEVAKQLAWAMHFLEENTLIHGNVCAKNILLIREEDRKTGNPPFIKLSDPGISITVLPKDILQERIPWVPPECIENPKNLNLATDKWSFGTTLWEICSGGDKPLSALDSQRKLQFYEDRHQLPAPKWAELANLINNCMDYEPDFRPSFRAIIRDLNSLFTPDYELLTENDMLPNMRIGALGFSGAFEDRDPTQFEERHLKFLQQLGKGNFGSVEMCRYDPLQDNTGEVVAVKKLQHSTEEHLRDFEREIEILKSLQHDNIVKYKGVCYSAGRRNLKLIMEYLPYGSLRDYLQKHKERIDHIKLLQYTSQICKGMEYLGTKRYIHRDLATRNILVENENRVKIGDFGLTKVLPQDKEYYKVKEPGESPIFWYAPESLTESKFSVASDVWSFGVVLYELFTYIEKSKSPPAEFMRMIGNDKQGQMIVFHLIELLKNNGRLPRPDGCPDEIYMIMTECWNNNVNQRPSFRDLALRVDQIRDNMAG

Compound	IC50 (JAK2) [µM]	IC50 (TYK2) [µM]	IC50 (JAK3) [µM]	IC50 (JAK1) [µM]
COc1cnc2nc1NCCCCCNC(=O)c1ccc(cc1)-c1cnc(F)c(c1)N2 [Compound 5, 2^6-fluoro-4^5-methoxy-3,5,11-triaza-4(2,4)-pyrimidina-2(3,5)-pyridina-1(1,4)-benzenacyclododecaphan-12-one]	1 to 10	> 10	1 to 10	1 to 10
Cc1cnc2nc1Nc1cccc(c1)CCCNC(=O)c1ccc(cc1)-c1cnc(F)c(c1)N2 [Compound 17, 2^6-fluoro-4^5-methyl-3,5,10-triaza-4(2,4)-pyrimidina-2(3,5)-pyridina-1(1,4),6(1,3)-dibenzenacycloundecaphan-11-one]	< 0.01	0.011 to 0.1	0.011 to 0.1	< 0.01
Cc1cnc2nc1Nc1cccc(c1)CCCNC(=O)c1c(F)cc(cc1F)-c1cnc(F)c(c1)N2 [Compound 31, 1^3,1^5,2^6-trifluoro-4^5-methyl-3,5,10-triaza-4(2,4)-pyrimidina-2(3,5)-pyridina-1(1,4),6(1,3)-dibenzenacycloundecaphan-11-one]	0.101 to 1	> 10	1 to 10	0.101 to 1
O=C1NCCOCc2cccc(c2)Nc2nc(ncc2F)Nc2cc(cnc2F)-c2ccc1cc2 [Compound 16, 2^6,4^5-difluoro-oxa-3,5,11-triaza-4(2,4)-pyrimidina-2(3,5)-pyridina-1(1,4),6(1,3)-dibenzenacyclododecaphan-12-one]	0.011 to 0.1	1 to 10	0.011 to 0.1	0.011 to 0.1
Cc1cnc2nc1Nc1ccccc1CCNC(=O)c1ccc(cc1F)-c1cnc(F)c(c1)N2 [Compound 30, 1^3,6^6-difluoro-4^5-methyl-1^3-3,5,9-triaza-4(2,4)-pyrimidina-1(5,2),2(3,5)-dipyridina-6(1,2)-benzenacyclodecaphan-10-one]	0.011 to 0.1	1 to 10	0.101 to 1	0.011 to 0.1
Cc1cnc2nc1NCCCCCNC(=O)c1ccc(cc1S(C)(=O)=O)-c1cnc(F)c(c1)N2 [Compound 20, 2^6-fluoro-4^5-methyl-1^3-methylsulfonyl-3,5,11-triaza-4(2,4)-pyrimidina-2(3,5)-pyridina-1(1,4)-benzenacyclododecaphan-12-one]	1 to 10	> 10	1 to 10	0.011 to 0.1
Cc1cnc2nc1NCCCCCNC(=O)c1ccc(cc1[N+](=O)[O-])-c1cnc(F)c(c1)N2 [Compound 10, 2^6-fluoro-4^5-methyl-1^3-nitro-3,5,11-triaza-4(2,4)-pyrimidina-2(3,5)-pyridina-1(1,4)-benzenacydododecaphan-12-one]	0.101 to 1	1 to 10	1 to 10	0.011 to 0.1
Cc1cnc2nc1NCCCCCNC(=O)c1ccc(cc1Cl)-c1cnc(F)c(c1)N2 [Compound 14, 1^3-chloro-2^6-fluoro-4^5-methyl-3,5,11-triaza-4(2,4)-pyrimidina-2(3,5)-pyridina-1(1,4)-benzenacyclododecaphan-12-one]	0.101 to 1	1 to 10	1 to 10	0.101 to 1

Other lines, results leading:

IC50 (JAK2) [µM]	IC50 (TYK2) [µM]	IC50 (JAK3) [µM]	IC50 (JAK1) [µM]	Compound
0.101 to 1	> 10	0.101 to 1	0.101 to 1	Cc1cnc2nc1NCCCCCNC(=O)c1ccc(c(F)c1F)-c1cnc(F)c(c1)N2 [Compound 34, 1^2,l^3,2^6-trifluoro-4^5-methyl-3,5,11-triaza-4(2,4)-pyrimidina-2(3,5)-pyridina-1(1,4)-benzenacydododecaphan-12-one]
0.101 to 1	> 10	1 to 10	0.101 to 1	COc1cc2cc(c1)Nc1nc(ncc1C)Nc1cc(cnc1F)-c1ccc(cc1)C(=O)NCC2 [Compound 47, 2^6-fluoro-6^5-methoxy-4^5-methyl-3,5,9-triaza-4(2,4)-pyrimidina-2(3,5)-pyridina-1(1,4),6(1,3)-dibenzenacyclodecaphan-10-one]
0.101 to 1	> 10	1 to 10	0.101 to 1	Cc1cnc2nc1NCCCCCCNC(=O)c1ccc(cc1F)-c1cnc(F)c(c1)N2 [Compound 13, I^3,2^6-difluoro-4^5-methyl-3,5,12-triaza-4(2,4)-pyrimidina-2(3,5)-pyridina-1(1,4)-benzenacyclotridecaphan-13-one]
0.011 to 0.1	1 to 10	0.011 to 0.1	< 0.01	Cc1cnc2nc1Nc1cccc(c1)CCNC(=O)c1ccc(cc1F)-c1cnc(F)c(c1)N2 [Compound 28, 1^3,2^6-difluoro-4^5-methyl-3,5,9-triaza-4(2,4)-pyrimidina-2(3,5)-pyridina-1(1,4),6(1,3)-dibenzenacyclodecaphan-10-one]
0.101 to 1	> 10	1 to 10	0.011 to 0.1	Cc1cnc2nc1Nc1cc(ccc1F)CCNC(=O)c1ccc(cc1S(C)(=O)=O)-c1cnc(F)c(c1)N2 [Compound 29, 2^6,6^6-difluoro-4^5-methyl-1^3(methylsulfonyl)-3,5,9-triaza-4(2,4)-pyrimidina-2(3,5)-pyridina-1(1,4),6(1,3)-dibenzenacyclodecaphan-10-one]
0.011 to 0.1	1 to 10	0.101 to 1	0.011 to 0.1	Cc1cnc2nc1Nc1ccccc1CCCNC(=O)c1ccc(cc1F)-c1cnc(F)c(c1)N2 [Compound 32, 1^3,2^6-difluoro-4^5-methyl-3,5,10-triaza-4(2,4)-pyridina-1(5,2),2(3,5)-dipyridina-6(1,2)-benzenacycloundecaphan-11-one]
0.101 to 1	> 10	1 to 10	1 to 10	Cc1cnc2nc1NCCCCCNC(=O)c1c(F)cc(cc1F)-c1cnc(F)c(c1)N2 [Compound 39, 1^3,1^5,2^6-trifluoro-4^5-methyl-3,5,11-triaza-4(2,4)-pyrimidina-2(3,5)-pyridina-1(1,4)-benzenacyclododecaphan-12-one]
0.101 to 1	> 10	0.101 to 1	0.011 to 0.1	Cc1cnc2nc1Nc1ccc(F)c(c1)CCNC(=O)c1ccc(cc1S(C)(=O)=O)-c1cnc(F)c(c1)N2 [Compound 27, 2^6,6^4-difluoro-4^5-methyl-1^3(methylsulfonyl)-3,5,9-triaza-4(2,4)-pyrimidina-2(3,5)-pyridina-1(1,4),6(1,3)-dibenzenacyclodecaphan-10-one]
0.101 to 1	1 to 10	1 to 10	0.101 to 1	Cc1cnc2nc1NCCCCCNC(=O)c1ccc(cc1N)-c1cnc(F)c(c1)N2 [Compound 9, 1^3-amino-2^6-difluoro-4^5-methyl-3,5,11-triaza-4(2,4)-pyrimidina-2(3,5)-pyridina-1(1,4)-benzenacyclododecaphan-12-one]
< 0.01	0.011 to 0.1	< 0.01	< 0.01	Cc1cnc2nc1Nc1cccc(c1)CCCCNC(=O)c1ccc(cc1)-c1cnc(F)c(c1)N2 [Compound 18, 2^6-fluoro-4^5-methyl-3,5,11-triaza-4(2,4)-pyrimidina-2(3,5)-pyridina-1(1,4),6(1,3)-dibenzenacyclododecaphan-12-one]
